# Results as given in paper PMC7275090, “Mode of action of teixobactins in cellular membranes” (Nature Communications, 2020).
# Bridge positions count the residues as written; N and C are the ends. Square brackets hold non-standard residues; d marks the D form. Ends that are not written are not given here. d(aIle) = CC[C@H](C)[C@@H](N)C(=O)O; dNMeF = CN[C@H](Cc1ccccc1)C(=O)O
# What was measured:
# [1] = 2D NH and DNP ssNMR of teixobactin-Lipid II complex in native cellular membranes; type: binding, Micrococcus flavus DSM 1790
# Method: (§1) 1D, 2D, and 3D ^1H-detected experiments were performed at 60 kHz MAS frequency using magnetic fields of 16.4, 18.8, and 22.2 T (700, 800, and 950 MHz ^1H-frequency) at temperatures of 305 K. All ^1H-detected experiments were dipolar-based. PISSARRO low-power decoupling[47] was used during detection periods. 2D ^13C^13C spin diffusion experiments were performed with PARISxy[48] recoupling at 950 MHz and 15.5, 17, or 18 kHz MAS frequency at 270 K temperature using mixing times of 25–1000 ms. SPINAL64[49] was used in detection periods. The 2D scalar ^13C^13C TOBSY[50] experiment was acquired at 950 MHz with 8 kHz MAS at 295 K temperature with 6 ms ^13C–^13C magnetization transfer time. Chemical shift assignments were performed using standard ^1H-detected 3D CANH and CONH experiments[36],[51] in combination with 2D ^13C^13C PARISxy[48] experiments with different magnetization transfer times (see Supplementary Tables 1 and 2). DNP-enhanced 2D ^13C^13C spin diffusion (20 ms mixing time) ssNMR experiments[52] were carried out using a 263 GHz microwave frequency, 400 MHz ^1H frequency setup (Bruker Biospin) at 100 K temperature and 8.5 kHz MAS.
# Native membrane vesicle preparations were obtained from Micrococcus flavus DSM 1790[13],[16]. The amount of antibiotic was ~7.5 and 30 nmol for the 1.3 and 3.2 mm rotors, respectively. […]
# [2] = 2D 15N1H ssNMR of bound teixobactin, mDAP-Lipid II vs Lys-Lipid II; type: binding; details: DOPC liposomes
# Method: as §1
# (§2) Lipid I or II-doped multi-laminar vesicle preparations: DOPC or DOPG lipids were mixed with Lipid I or II in 1:1 MeOH:CHCl3 at the final Lipid I or II molar ratio (0–4 mol%/mol). […]
# [3] = ssNMR 15N T1rho relaxation (dynamics of bound teixobactin), Lys-Lipid II; details: for Bulk 15N R1rho / Bulk 15N T1rho: 950 MHz, 60 kHz MAS
# Method: (§3) Relaxation studies: ^1H-detected ^15N T1rho relaxation experiments were carried out at 950 and 700 MHz magnetic field, respectively, using 60 kHz MAS[51]. The ^15N transverse magnetization decay was probed with a ^15N spinlock field of 17.5 kHz. For the bulk, we measured the intensity of the most intense signal at ~8.80 ^1H ppm. T1rho trajectories were fit to single exponentials.
# (§4) Lipid I or II-doped multi-laminar vesicle preparations: DOPC or DOPG lipids were mixed with Lipid I or II in 1:1 MeOH:CHCl3 at the final Lipid I or II molar ratio (0–4 mol%/mol). The mixtures were dried and the lipid films were hydrated by vortexing with 2 mL of a teixobactin solution in 40 mM phosphate, 25 mM NaCl, pH 7.0.
# (§5) SSNMR samples: MLVs were collected by centrifugation (20,000×g) and loaded into ssNMR rotors. For 3.2 mm rotors, we used 800 nmol of antibiotic with unlabelled Lipid II or I, while we used 400 nmol with labelled Lipid II. For 1.3 mm rotors, samples contained 200 nmol of antibiotic for unlabelled Lipid II or I, while we used 100 nmol for labelled Lipid II. For all ssNMR samples, we used 4 mol%/mol Lipid II or I in the MLVs.
# [4] = 2D 15N1H ssNMR of bound teixobactin, Lys-Lipid I; type: binding; details: DOPC liposomes; clear signal changes in the ring motif
# Method: as §1, §2
# [5] = ssNMR 15N T1rho relaxation (dynamics of bound teixobactin), mDAP-Lipid II; details: 950 MHz, 60 kHz MAS
# Method: as §3, §4, §5
# [6] = 31P and 2D 1H31P ssNMR of pyrophosphate binding interface; details: membranes
# Excerpt: Structural studies: To probe intermolecular contacts between ^13C,^15N-labelled [R4L10]-teixobactin molecules bound to unlabelled (^12C,^14N) Lipid II, we ran 2D ^13C^13C PARIS experiments with magnetization transfer times of 50, 300, 600, and 1000 ms at 950 MHz and 15.5 kHz MAS. To probe interfacial contacts between ^13C,^15N-labelled [R4L10]-teixobactin and ^13C,^15N-labelled Lipid II, we ran 2D ^13C^13C PARIS experiments with magnetization transfer times of 25, 50, 600, and 1000 ms at 950 MHz and 18 kHz MAS. 1D ^31P CP experiments were acquired at 500 MHz with 12 kHz MAS. The 2D ^1H^31P experiment was acquired at 800 MHz magnetic field and 60 kHz MAS using 1.75 ms CP transfer from ^1H to ^31P.
# as §5
# [7] = bound to Lys-LII in DOPC liposomes, 950 MHz/60 kHz MAS
# [8] = bound to Lys-Lipid II in DOPC (Lys-LII PC)
# [9] = bound to Lys-Lipid II in DOPG (Lys-LII_PG)
# [10] = bound to mDAP-Lipid II in DOPC (DAP-LII_PC)
# [11] = bound to mDAP-Lipid II in DOPG (DAP-LII_PG)
substance,measurement,setting,value
"D-Arg4-Leu10-teixobactin ([dNMeF]IS[dR][d(aIle)]IS[dT]ALI; ester 8-C; also: 13C,15N labels at Ile2, Ser3, Ile6, Ser7 and one Ala (residue not fully stated)) [[R4L10]-teixobactin, teixobactin analogue in which D-Gln4 and L-allo-enduracididine10 are replaced by D-Arg4 and L-Leu10]",oligomerization and complex structure in natural membranes,"[1]; DNP-ssNMR 2D 13C13C, M. flavus membranes vs DOPC",conserved in natural membranes
same,cellular 2D NH spectrum vs anionic membranes,"[1]; M. flavus membranes, 7.5 nmol of drug",strongly resembled the one in anionic membranes
same,ssNMR spectra bound to Lys-Lipid II vs mDAP-Lipid II,[2],gave the same ssNMR spectra
same,mobility of Lipid II-bound peptide with increasing anionic membrane charge,"[3]; DOPG vs DOPC, ssNMR relaxation",stark increase in mobility
same,"15N R1rho, Ala9",[3]; [7],8.95 s⁻¹
same,"15N R1rho, Ile2",[3]; [7],8.49 s⁻¹
same,"15N R1rho, Ile6",[3]; [7],7.70 s⁻¹
same,"15N R1rho, Leu10",[3]; [7],10.67 s⁻¹
same,"15N R1rho, Ser3",[3]; [7],7.40 s⁻¹
same,"15N R1rho, Ser7",[3]; [7],6.84 s⁻¹
same,"15N T1rho, Ala9",[3]; [7],111.70 ms
same,"15N T1rho, Ile2",[3]; [7],117.80 ms
same,"15N T1rho, Ile6",[3]; [7],129.90 ms
same,"15N T1rho, Leu10",[3]; [7],93.72 ms
same,"15N T1rho, Ser3",[3]; [7],135.20 ms
same,"15N T1rho, Ser7",[3]; [7],146.10 ms
same,Bulk 15N R1rho,[3]; [8],9.46 s⁻¹
same,Bulk 15N T1rho,[3]; [8],105.70 ms
same,Bulk 15N R1rho,[3]; [9],29.61 s⁻¹
same,Bulk 15N T1rho,[3]; [9],33.77 ms
same,binding to Lys-Lipid I,[4],also able to bind Lys-Lipid I
same,Bulk 15N R1rho,[5]; [10],22.15 s⁻¹
same,Bulk 15N T1rho,[5]; [10],45.14 ms
same,Bulk 15N R1rho,[5]; [11],36.17 s⁻¹
same,Bulk 15N T1rho,[5]; [11],27.65 ms
same,coordination of Lipid II pyrophosphate,[6],directly coordinate the pyrophosphate
